Data taken from US10092529B2, “Necrosis inhibitors” (National Institute of Biological Sciences, Beijing, priority 2014, dated 2018).
Where two headings read alike, the source gives them in different places.

Tests used:
[1] = target: hRIP1 kinase (recombinant full-length RIPK1 protein with N-terminal GST-tag) (Homo sapiens (Human), UniProt Q13546); assay: Kinase assay of RIPK1 (ADP-Glo); assay type: biochemical; conditions: for IC50: 161 nM RIPK1, 50 uM ATP, 20 uM MBP, 90 min
Method: Materials: Recombinant full-length RIPK1 protein with N-terminal GST-tag (Cat#R07-34G) was purchased from SignalChem. The ADP-Glo™ kinase assay kit (Cat#V9102) was from Promega. MBP (cat# M2295) protein and all the other chemicals were from Sigma. The 384-well assay plates (Cat#3674, white, opaque) were purchased from Corning.
Kinase activity assay and data analysis: The RIPK1 kinase assay was performed in white 384-well plate. The assay buffer contained 25 mM HEPES (pH7.2), 20 mM MgCl2, 12.5 mM MnCl2, 5 mM EGTA, 2 mM EDTA, 12.5 mM β-glycerol phosphate and 2 mM DTT. RIPK1 was first incubated with compounds or DMSO control for […], then ATP/MBP substrate mixture was added to initiate the reaction. The final concentration of RIPK1 was 161 nM, while the final concentration of ATP was 50 uM, and MBP 20 uM. After 90 min reaction at room temperature, the ADP-Glo reagent and detection solution were added following the technical manual of ADP-Glo™ kinase assay kit (Promega). The luminescence was measured on PerkinElmer Enspire. The data was analyzed using Graphpad Prism (GraphPad Software; www.graphpad.com). The curves were fitted using a non-linear regression model with a sigmoidal dose response.

[2] = system: HT-29 cells; assay: Necrosis assay: TNF-α/Smac mimetic/z-VAD induced necrosis, cell viability by CellTiter-Glo; assay type: cell-based
Method: HT-29 cells were cultured in McCoy's 5A culture medium (Invitrogen). On day one, HT-29 cells were plated in 96-well assay plates at density of 2,500-3,500 cells per well. On day two, necrosis were induced by adding 20 ng/ml TNF-α (T), 100 nM Smac mimetic (S), and […] z-VAD (Z). At the same time, […] compound from a chemical library of ˜200,000 compounds was delivered into each well. After 24 hrs treatment, cell viability was determined by measuring ATP level using the CellTiter-Glo Luminescent Cell Viability Assay kit. A CellTiter-Glo Assay (Promega) was performed according to the manufacturer's instructions Luminescence was recorded with a PerkinElmer EnSpire Multimode Plate Reader. Survived cells were normalized to those cells treated with DMSO. Nec-1 was used as a positive control for screening necrosis inhibitors. Data are represented as mean±standard deviation of duplicates.
Dose-dependent inhibition of necrosis by compound #9 and the derivative compounds in HT-29 cells were determined by measuring ATP levels as described above.

[3] = Homo sapiens, necrosis induced by TNF-α/Smac mimetic/z-VAD, 24 hrs, ATP level, read-out: Cell viability assay, EC50
[4] = inhibition of necrosis, ATP levels, range given in nM, read-out: EC50 (necrosis activity)
[5] = Homo sapiens, inhibition of necrosis, ATP levels, range given in uM, read-out: EC50 (necrosis activity)
[6] = inhibition of necrosis, ATP levels, range given in uM, read-out: EC50 (necrosis activity)

Sequence of hRIP1 kinase (recombinant full-length RIPK1 protein with N-terminal GST-tag) (Q13546 whole entry): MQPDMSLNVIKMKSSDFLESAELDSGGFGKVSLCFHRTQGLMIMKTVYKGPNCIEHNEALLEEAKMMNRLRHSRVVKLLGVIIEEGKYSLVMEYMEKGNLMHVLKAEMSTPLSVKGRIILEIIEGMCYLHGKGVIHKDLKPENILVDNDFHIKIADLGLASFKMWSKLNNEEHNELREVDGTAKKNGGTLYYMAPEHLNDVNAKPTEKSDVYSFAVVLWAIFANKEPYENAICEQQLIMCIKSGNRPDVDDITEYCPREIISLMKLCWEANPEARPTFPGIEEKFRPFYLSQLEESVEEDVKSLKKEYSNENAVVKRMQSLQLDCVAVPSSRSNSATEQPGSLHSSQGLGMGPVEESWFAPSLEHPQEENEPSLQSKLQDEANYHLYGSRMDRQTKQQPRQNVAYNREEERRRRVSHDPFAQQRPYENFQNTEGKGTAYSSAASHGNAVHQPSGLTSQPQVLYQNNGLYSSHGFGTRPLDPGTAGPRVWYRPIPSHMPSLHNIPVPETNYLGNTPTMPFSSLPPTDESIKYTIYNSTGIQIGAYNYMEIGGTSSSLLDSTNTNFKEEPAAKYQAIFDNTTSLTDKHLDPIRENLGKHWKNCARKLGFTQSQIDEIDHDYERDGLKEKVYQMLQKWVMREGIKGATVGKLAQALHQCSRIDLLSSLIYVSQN

SMILES | EC50 [2, 4] [nM] | EC50 [2, 5] [nM] | also measured
CCC(C)(C)C(=O)N1C(=O)N(C)C[C@H]1c1ccccc1 [Compound 31, (R)-3-(2,2-dimethylbutanoyl)-1-methyl-4-phenylimidazolidin-2-one] | 1 to 1000 |  | IC50 [1]: 1.06 µM; EC50 [2, 3]: 609 nM
CCC(C)(C)C(=O)N1C(=O)CC1c1cccc(N=[N+]=[N-])c1 (stereo not shown) [Compound 25, 4-(3-azidophenyl)-1-(2,2-dimethylbutanoyl)azetidin-2-one] | 1 to 1000 |  | IC50 [1]: 0.152 µM; EC50 [2, 3]: 556 nM
CCC(C)(C)C(=O)N1C[C@H](O)C[C@H]1c1ccccc1 [Compound 15, 1-((2S,4R)-4-hydroxy-2-phenylpyrrolidin-1-yl)-2,2-dimethylbutan-1-one] | 1 to 1000 |  | IC50 [1]: 0.46 µM; EC50 [2, 3]: 396 nM
C=CC(C)(C)C(=O)N1C(=O)C[C@H]1c1ccccc1 [Compound 38, (S)-1-(2,2-dimethylbut-3-enoyl)-4-phenylazetidin-2-one] | 1 to 1000 |  | IC50 [1]: 0.0137 µM; EC50 [2, 3]: 8.39 nM
CCC(C)(C)C(=O)N1CCC1c1ccccc1 (stereo not shown) [Compound 2, 2,2-dimethyl-1-(2-phenylazetidin-1-yl)butan-1-one] | 1 to 1000 |  | IC50 [1]: 0.0348 µM; EC50 [2, 3]: 29.6 nM
CCC(C)(C)C(=O)N1CCNCC1c1ccccc1 (stereo not shown) [Compound 17, 2,2-dimethyl-1-(2-phenylpiperazin-1-yl)butan-1-one] |  | 1000 to 100000 | 
CCC(C)(C)C(=O)N1CC[C@@H](O)[C@H]1c1ccccc1 [Compound S2, 1-((2R,3R)-3-hydroxy-2-phenylpyrrolidin-1-yl)-2,2-dimethylbutan-1-one] |  | 1000 to 100000 | 
CCC(C)(C)C(=O)N1CCOCC1c1ccccc1 (stereo not shown) [Compound 12, 2,2-dimethyl-1-(3-phenylmorpholino)butan-1-one] |  | 1000 to 100000 | 
CC(C)(C)C(=O)N1CCCC1c1ccccc1 (stereo not shown) [Compound S11, 2,2-dimethyl-1-(2-phenylpyrrolidin-1-yl)propan-1-one] | 1 to 1000 |  | 
CCC(C)(C)C(=O)N1CC(F)(F)C1c1ccccc1 (stereo not shown) [Compound 14, 1-(3,3-difluoro-2-phenylazetidin-1-yl)-2,2-dimethylbutan-1-one] | 1 to 1000 |  | 
CCC(C)(C)C(=O)N1C(=O)C[C@H]1c1ccccc1 [Compound 24, (S)-1-(2,2-dimethylbutanoyl)-4-phenylazetidin-2-one] | 1 to 1000 |  | IC50 [1]: 0.0198 µM; EC50 [2, 3]: 7 nM
CCC(C)(C)C(=O)N1CCCC1c1cccc(F)c1 (stereo not shown) [Compound 9, 1-(2-(3-fluorophenyl)pyrrolidin-1-yl)-2,2-dimethylbutan-1-one] | 1 to 1000 |  | 
O=C1C[C@@H](c2ccccc2)N1C(=O)C1C2CC3CC(C2)CC1C3 (stereo partly drawn) [Compound 47, (S)-1-(adamantane-2-carbonyl)-4-phenylazetidin-2-one] |  | 1000 to 10000 | 
C#CCN1C[C@@H](c2ccccc2)N(C(=O)C(C)(C)CC)C1=O [Compound 30, (R)-3-(2,2-dimethylbutanoyl)-4-phenyl-1-(prop-2-yn-1-yl)imidazolidin-2-one] |  | 1000 to 10000 | 
C=CC(C)(C)C(=O)N1C=CC=C[C@H]1C1CCCCC1 [Compound 57] |  |  | EC50 [2, 6]: 1000 to 1e+06 nM
C#Cc1cccc(C2CC(=O)N2C(=O)C(C)(C)CC)c1 (stereo not shown) [Compound 27, 1-(2,2-dimethylbutanoyl)-4-(3-ethynylphenyl)azetidin-2-one] | 1 to 1000 |  | 
O=C(N1CCCC1c1cccc(F)c1)C1(C(F)(F)F)CCCC1 (stereo not shown) [Compound 35, (2-(3-fluorophenyl)pyrrolidin-1-yl)(1-(trifluoromethyl)cyclopentyl)methanone] | 1 to 1000 |  | 
CCC(C)(C)C(=O)N1CCC1c1cccs1 (stereo not shown) [Compound 59] |  |  | EC50 [2, 6]: 1000 to 1e+06 nM
CCC(C)(C)C(=O)N1CCC1c1ccco1 (stereo not shown) [Compound 61] |  |  | EC50 [2, 6]: 1000 to 1e+06 nM
O=C1C[C@@H](c2ccccc2)N1CC1CC1 [Compound 50, (S)-1-(cyclopropylmethyl)-4-phenylazetidin-2-one] |  | 1000 to 100000 | 
CCC(C)(C)C(=O)N1C[C@@H](O)C[C@H]1c1ccccc1 [Compound 13, 1-((2S,4S)-4-hydroxy-2-phenylpyrrolidin-1-yl)-2,2-dimethylbutan-1-one] |  | 1000 to 10000 | inhibition at 2 µM [1]: 69%; EC50 [2, 3]: 2620 nM
C=CC(C)(C)C(=O)N1OCCC1c1ccccc1 (stereo not shown) [Compound 77] |  |  | EC50 [2, 6]: 1000 to 1e+06 nM
CC(F)(F)C(C)(C)C(=O)N1CCC=C[C@H]1c1ccccc1 [Compound S17] |  | 1000 to 100000 | 

SMILES | EC50 [2, 4] [nM] | EC50 [2, 5] [nM] | also measured
C#CCN1C(=O)OC[C@H]1c1ccccc1 [Compound 52, (R)-4-phenyl-3-(prop-2-yn-1-yl)oxazolidin-2-one] |  | 1000 to 100000 | 
CC(F)(F)C(C)(C)C(=O)N1CCC=C[C@H]1C1CCCCC1 [Compound S13] |  | 1000 to 100000 | 
CC(F)(F)C(C)(C)C(=O)N1CC[C@H]1c1ccccc1 [Compound S9] | 1 to 1000 |  | 
CC(F)(F)C(C)(C)C(=O)N1CCCC1c1ccccc1 (stereo not shown) [Compound S10, 3,3-difluoro-2,2-dimethyl-1-(2-phenylpyrrolidin-1-yl) butan-1-one] | 1 to 1000 |  | 
CCC(C)(C)C(=O)N1CCC(=O)[C@H]1c1ccccc1 [Compound S3, (R)-1-(2,2-dimethylbutanoyl)-2-phenylpyrrolidin-3-one] |  | 1000 to 10000 | 
C=CC(C)(C)C(=O)N1CC[C@H]1c1ccccc1 [Compound 68] |  |  | EC50 [2, 6]: 1000 to 1e+06 nM
CCC(C)(C)C(=O)N1CC[C@H]1c1ccccc1 [Compound 3, (S)-2,2-dimethyl-1-(2-phenylazetidin-1-yl)butan-1-one] | 1 to 1000 |  | 
C=CC(C)(C)C(=O)N1C=CC=CC1c1ccccc1 (stereo not shown) [Compound 58] |  |  | EC50 [2, 6]: 1000 to 1e+06 nM
CCC(C)(C)C(=O)N1CC[C@H](O)[C@H]1c1ccccc1 [Compound S1, 1-((2R,3S)-3-hydroxy-2-phenylpyrrolidin-1-yl)-2,2-dimethylbutan-1-one] |  | 1000 to 10000 | 
CC(F)(F)C(C)(C)C(=O)N1CC=C[C@H]1c1ccccc1 [Compound S16] |  | 1000 to 100000 | 
CCC(C)(C)C(=O)N1C(=O)OC[C@H]1c1ccccc1 [Compound 23, (R)-3-(2,2-dimethylbutanoyl)-4-phenyloxazolidin-2-one] | 1 to 1000 |  | 
CC(F)(F)C(C)(C)C(=O)N1C=CC=CC1C1CCCCC1 (stereo not shown) [Compound S14] |  | 1000 to 100000 | 
CCC(C)(C)C(=O)N1CCCC1c1cc(F)cc(F)c1F (stereo not shown) [Compound 10, 2,2-dimethyl-1-(2-(2,3,5-trifluorophenyl)pyrrolidin-1-yl)butan-1-one] | 1 to 1000 |  | IC50 [1]: 0.0225 µM; EC50 [2, 3]: 9.88 nM
O=C(N1CCCC1c1cccc(F)c1)C12CC3CC(CC(C3)C1)C2 (stereo not shown) [Compound 37, adamantan-1-yl(2-(3-fluorophenyl)pyrrolidin-1-yl)methanone] |  | 1000 to 100000 | 
O=C(N1CCCC1c1cccc(F)c1)C1(C(F)(F)F)CCC1 (stereo not shown) [Compound 36, (2-(3-fluorophenyl)pyrrolidin-1-yl)(1-(trifluoromethyl)cyclobutyl)methanone] | 1 to 1000 |  | 
CCC(C)(C)C(=O)N1CCC=C[C@H]1C1CCCCC1 [Compound 53] |  |  | EC50 [2, 6]: 1000 to 1e+06 nM
CCC(C)(C)C(=O)N1C(=O)CCC1c1ccccc1 (stereo not shown) [Compound 29, 1-(2,2-dimethylbutanoyl)-5-phenylpyrrolidin-2-one] |  | 1000 to 100000 | 
C#CC(C)(C)C(=O)N1C(=O)CC1c1cccc(N=[N+]=[N-])c1 (stereo not shown) [Compound 44, 4-(3-azidophenyl)-1-(2,2-dimethylbut-3-ynoyl)azetidin-2-one] |  | 1000 to 10000 | 
CC(F)(F)C(C)(C)C(=O)N1C=CC=CC1c1ccccc1 (stereo not shown) [Compound S15] |  | 1000 to 100000 | 
CCC(C)(C)C(=O)N1CC(O)C1c1ccccc1 (stereo not shown) [Compound 16, 1-(3-hydroxy-2-phenylazetidin-1-yl)-2,2-dimethylbutan-1-one] |  | 1000 to 10000 | 
CCS(=O)(=O)N1CC[C@H]1c1ccccc1 [Compound S6, (S)-1-(ethylsulfonyl)-2-phenylazetidine] |  | 1000 to 100000 | 
CCC(C)(C)C(=O)N1CCCC1c1ccccc1 (stereo not shown) [Compound 4, 2,2-dimethyl-1-(2-phenylpyrrolidin-1-yl)butan-1-one] | 1 to 1000 |  | 
